In patent US20200261398A1, “METHOD FOR FIRST-LINE TREATMENT OF ROSACEA” (Sol-Gel Technologies Ltd., priority 2019, published 2020):

Assays:
[1] = system: patients afflicted with papulopustular rosacea; experiment: Investigator Global Assessment (IGA) success, 12-week vehicle-controlled study of E-BPO 5% cream; assay type: in vivo, human
Experimental: (§1) A multi-center, double-blind, randomized, vehicle-controlled, dose-range study of encapsulated 5% benzoyl peroxide (E-BPO) Cream and vehicle cream was performed to assess the efficacy and safety of E-BPO compared to vehicle. Study duration was 12 weeks and included approximately 350 male and female patients afflicted with papulopustular rosacea. Patients were at least 18 years of age, and met the inclusion/exclusion criteria described herein.
Patients were randomized in a 2:1 ratio to the study product or vehicle treatment group, respectively. […]
Patients were admitted into the study after meeting all inclusion/exclusion criteria, including a clinical diagnosis of rosacea and after written informed consent has been obtained. […] At each visit, a 5-point IGA scale of rosacea; rosacea erythema, and telangiectasia; and inflammatory (papules, pustules) lesion counts were performed and recorded.
(§2) The first application of the test product was applied at the investigational site at the end of the Baseline visit (Day 0) under the supervision and instruction of the designated investigational site staff. […] The evaluator also assessed local application site irritation (dryness, scaling, pruritus, stinging and burning) at Baseline and Weeks 2, 4, 8 and 12 (end of study). […]

[2] = system: patients afflicted with papulopustular rosacea; experiment: Inflammatory lesion (papules, pustules) count, 12-week vehicle-controlled study of E-BPO 5% cream; assay type: in vivo, human
Experimental: as §1
Patients were randomized in a 2:1 ratio to the study product or vehicle treatment group, respectively. Patients applied the study product once daily for 12 weeks on the face (chin, left cheek, right cheek, nose, left forehead and right forehead) in a thin layer to provide even distribution, and avoid the eyes, lips, inside the nose, mouth and all mucous membranes.
Patients were admitted into the study after meeting all inclusion/exclusion criteria, including a clinical diagnosis of rosacea and after written informed consent has been obtained. Subjects with severe rosacea who are appropriate for systemic treatment need to be counseled regarding their treatment options by the Principal Investigator. At each visit, a 5-point IGA scale of rosacea; rosacea erythema, and telangiectasia; and inflammatory (papules, pustules) lesion counts were performed and recorded.
The first application of the test product was applied at the investigational site at the end of the Baseline visit (Day 0) under the supervision and instruction of the designated investigational site staff. The investigator performed the Investigator Global Assessment (IGA) and inflammatory lesion (papules and pustules) counts at Screening, Baseline, and Weeks 4, 8, and 12 (end of study) and erythema and telangiectasia assessments at Baseline, and Weeks 4, 8, and 12 (end of study). The evaluator also assessed local application site irritation (dryness, scaling, pruritus, stinging and burning) at Baseline and Weeks 2, 4, 8 and 12 (end of study). At selected investigational site(s), standardized photography of facial rosacea also was performed at Baseline and Week 8 and 12 (end of study).
The absolute change (primary measure of success) and percent change (secondary measure of success) from baseline of inflammatory lesions was derived for each patient at Weeks 2, 4, 8 and 12. The IGA was recorded for each patient at Baseline, Weeks 2, 4, 8 and 12. Weeks 2, 4, 8 and 12 with a patient were considered a success for those visits if the IGA was at least 2 grades less than baseline and are Clear or Almost Clear. Data from two sets of experiments—Drug 01+Vehicle 01 and Drug 02+Vehicle 02—are included herewith for each measurement
The proportions of subjects with a secondary measure of success (defined as change in the mean inflammatory lesion count from Baseline to Weeks 2, 4, 8 and 12) are shown in Tables 2A, 2B, 3A and 3B, and FIGS. 2 and 3.

[3] = system: patients afflicted with papulopustular rosacea; experiment: Cutaneous Safety Assessment (dryness, scaling) and Local Tolerability Assessment (itching, burning/stinging), 12-week study of E-BPO 5% cream; assay type: in vivo, human; details: studies described herein
Experimental: Safety was assessed at all visits, and will include monitoring of local adverse experiences, Investigator Cutaneous Safety Assessment rating of dryness and scaling and Local Tolerability Assessment rating of itching and burning/stinging on a scale ranging from 0 (None) to 3 (Severe); patients complete a Patient Reported Outcomes (PRO) questionnaire at Visit 2, 3, 4, 5 and 6 and Rosacea Quality of Life Questionnaire (RosaQoL) at Baseline and Visit 6 or at early termination. Standardized photography of facial rosacea at Visit 2, 3, 4, 5 and 6 was performed at select site(s).
In addition to IGA, at each visit, the following safety measures were recorded: monitoring for any AE (adverse effects) including local and systemic; investigator Cutaneous Safety Assessment rating of erythema, dryness and scaling and Local Tolerability Assessments rating of itching and burning/stinging on a scale ranging from 0 (None) to 3 (Severe).
as §2

rosacea = details: BPO as the sole active agent (Gul 2008); cited from earlier work
[4] = after at least 12 weeks of treatment

O=C(OOC(=O)c1ccccc1)c1ccccc1 [BPO, Benzoyl peroxide]
success in IGA ([1]; after 2 weeks of BPO-treatment): about 10%
success in IGA ([1]; after only 4 weeks of treatment): about 25%
decrease in inflammatory lesions [2, 4]: over 69%
decrease in inflammatory lesions relative to effect of vehicle cream [2, 4]: more than 1.5 ×
decrease in inflammatory lesions, on average ([2]; after only 2 weeks of treatment): about 40%
decrease in inflammatory lesions ([2]; in 4 weeks): over 58%
decrease in inflammatory lesions ([2]; in 8 weeks): about 70%
percentage of patients reporting no subcutaneous reactions compared with vehicle [3]: comparable, and for some conditions, surprisingly, higher
response of lesions (rosacea): unresponsive
